The source of these data is US12383633B1, “Injectable formulations of PARP inhibitors and uses thereof” (ZYMERON CORPORATION, priority 2024, dated 2025).

Like-named read-outs stand apart in the source and are kept apart here. Where only a bound is given, the exact number is not on record here.

The procedure of series [1]: 2.5 mL solutions of each excipient with each concentration were prepared by serial dilution of the saturated solution. One vial for each excipient experiment was prepared with 2.5 ml water. To each vial, 50 mg olaparib was added, sonicated, vortexed, and shaken at 40° C. for over 20 hr. After agitation at 25° C., the suspensions were filtered to obtain clear solutions. The clear solutions were analyzed using HPLC.
2.5 mL solutions of each excipient with each concentration were prepared by serial dilution of the 600 mg/mL solution. One vial for each excipient experiment was prepared with 2.5 mL water. To each vial, 50 mg olaparib was added, sonicated, vortexed, and shaken at 40° C. for over 20 hours. After agitation at 25° C., the suspensions were filtered to obtain clear solutions. The clear solutions were analyzed using HPLC.

The conditions of series [2]: cited from earlier work.
The format of series [3] is physicochemical. How it is done:
Sulfobutylether-β-cyclodextrin-enabled olaparib solubility enhancement experiments were conducted at various olaparib and sulfobutylether-β-cyclodextrin concentrations (FIG. 5). The dissolved quantity of olaparib increased when the concentration of sulfobutylether-β-cyclodextrin increased, indicating the formation of a 1:1 complex between the drug and solubilizer. The apparent complexation constant (K1:1) was calculated to be 432.4 M^−1 at 22° C.
This would be equivalent to >10 and >50 molar and weight ratios, respectively.
Sulfobutylether-β-cyclodextrin-enabled rucaparib solubility enhancement experiments were conducted at various rucaparib and sulfobutylether-β-cyclodextrin concentrations (FIG. 6). The dissolved quantity of rucaparib increased when the concentration of sulfobutylether-β-cyclodextrin increased, indicating the formation of a 1:1 complex between the drug and solubilizer. The apparent complexation constant (K1:1) was calculated to be 596.7 M^−1 at 22° C.

The conditions of series [4]: direct injection of 30-40% (w/v), preclinical studies; cited from earlier work.

As to `OC[C@@H](O)[C@@H](O)[C@H](O)[C@H](O)CO` [D-mannitol], the “Solubility Enhancement Factor” value in series [1] is given as 1. Moreover, in series [2] (25° C.), the saturated water solubility was 216 mg/mL.
With `CC(O)COC[C@H]1O[C@@H]2O[C@H]3[C@H](O)[C@@H](O)[C@@H](O[C@H]4[C@H](O)[C@@H](O)[C@@H](O[C@H]5[C@H](O)[C@@H](O)[C@@H](O[C@H]6[C@H](O)[C@@H](O)[C@@H](O[C@H]7[C@H](O)[C@@H](O)[C@@H](O[C@H]8[C@H](O)[C@@H](O)[C@@H](O[C@H]1[C@H](O)[C@H]2O)O[C@@H]8COCC(C)O)O[C@@H]7COCC(C)O)O[C@@H]6COCC(C)O)O[C@@H]5COCC(C)O)O[C@@H]4COCC(C)O)O[C@@H]3COCC(C)O` (stereo partly drawn) [HP-β-cyclodextrin, 2-hydroxypropyl-β-cyclodextrin], in series [1], the “Solubility Enhancement Factor” value amounted to 324 and the “olaparib water solubility improvement by excipient” value is reported as “more than 100 fold”.
In the case of `O=C(c1cc(Cc2n[nH]c(=O)c3ccccc23)ccc1F)N1CCN(C(=O)C2CC2)CC1` [olaparib], the water solubility in series [2] is less than 0.07 mg/mL. The “apparent complexation constant (K1:1)” value in series [3] was 432.4 M⁻¹. In addition, the “equivalent weight ratio sulfobutylether-β-cyclodextrin to olaparib” value in series [3] (to achieve 5 mg/ml olaparib) was more than 50.
For `CNCc1ccc(-c2[nH]c3cc(F)cc4c3c2CCNC4=O)cc1` [rucaparib], the water solubility entry in series [2] (across the physiological pH range) is on record as “around 1 mg/mL”. Moreover, the “apparent complexation constant (K1:1)” value in series [3] came to 596.7 M⁻¹.
`OC[C@H]1O[C@@H]2O[C@H]3[C@H](O)[C@@H](O)[C@@H](O[C@H]4[C@H](O)[C@@H](O)[C@@H](O[C@H]5[C@H](O)[C@@H](O)[C@@H](O[C@H]6[C@H](O)[C@@H](O)[C@@H](O[C@H]7[C@H](O)[C@@H](O)[C@@H](O[C@H]8[C@H](O)[C@@H](O)[C@@H](O[C@H]1[C@H](O)[C@H]2O)O[C@@H]8CO)O[C@@H]7CO)O[C@@H]6CO)O[C@@H]5CO)O[C@@H]4CO)O[C@@H]3CO` [β-cyclodextrin]: in series [1], the “Solubility Enhancement Factor” value came to 10 and the “olaparib water solubility improvement by excipient” value came to 10 fold.
In the case of “sulfobutylether-β-cyclodextrin [Sulfobutylether β-cyclodextrin]”, the hypertonicity-related adverse effects result in series [4] is given as “did not lead to any hypertonicity-related adverse effects”.
